# According to ChEMBL document CHEMBL1201862, “PubChem BioAssay data set” (2004):
#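 The compound was tested at five concentrations on cells cultured in 96-well plates, with a 48-hour exposure period. GI50: concentration for 50% inhibition of growth.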 The source made the active and inactive calls. Cut-off read from the data, not from the text of the source: active = GI50 up to about 1.1 µM and inactive = higher.
# Tests used:
# Assay in all cases: inhibition of tumour cell growth, NCI panel, 48 h
# [1] = test system: 786-0
# [2] = test system: A549
# [3] = test system: ACHN
# [4] = test system: CAKI-1
# [5] = test system: CCRF-CEM
# [6] = test system: COLO 205
# [7] = test system: DLD-1
# [8] = test system: DMS-114
# [9] = test system: DMS-273
# [10] = test system: EKVX
# [11] = test system: HCC 2998
# [12] = test system: HCT-116
# [13] = test system: HCT-15
# [14] = test system: HL-60
# [15] = test system: HOP-18
# [16] = test system: HOP-62
# [17] = test system: HT-29
# [18] = test system: IGROV-1
# [19] = test system: K562
# [20] = test system: KM-20L2
# [21] = test system: KM12
# [22] = test system: LOX IMVI
# [23] = test system: LXFL 529
# [24] = test system: M14
# [25] = test system: M19-MEL
# [26] = test system: MOLT-4
# [27] = test system: Malme-3M
# [28] = test system: NCI-H226
# [29] = test system: NCI-H23
# [30] = test system: NCI-H460
# [31] = test system: NCI-H522
# [32] = test system: OVCAR-4
# [33] = test system: OVCAR-5
# [34] = test system: OVCAR-8
# [35] = test system: RPMI-8226
# [36] = test system: RXF 393
# [37] = test system: SF-268
# [38] = test system: SF-295
# [39] = test system: SF-539
# [40] = test system: SK-MEL-28
# [41] = test system: SK-MEL-2
# [42] = test system: SK-OV-3
# [43] = test system: SN12C
# [44] = test system: SNB-19
# [45] = test system: SNB-75
# [46] = test system: SNB-78
# [47] = test system: SW-620
# [48] = test system: TK-10
# [49] = test system: U-251
# [50] = test system: UACC-257
# [51] = test system: UACC-62
# [52] = test system: UO-31
# [53] = test system: XF498
# [54] = test system: A498
# [55] = test system: HOP-92
# [56] = test system: MCF7
# [57] = test system: NCI/ADR-RES
# [58] = test system: OVCAR-3
# [59] = test system: SK-MEL-5
smiles,measurement,setting,value
CN1C(=O)CCC1c1ccc2c(c1)oc(=O)n2C (configuration not stated),GI50,[1],> 100 µM (inactive)
same,GI50,[2],> 100 µM (inactive)
same,GI50,[3],> 100 µM (inactive)
same,GI50,[4],> 100 µM (inactive)
same,GI50,[5],> 100 µM (inactive)
same,GI50,[6],> 100 µM (inactive)
same,GI50,[7],> 100 µM (inactive)
same,GI50,[8],> 100 µM (inactive)
same,GI50,[9],> 100 µM (inactive)
same,GI50,[10],> 100 µM (inactive)
same,GI50,[11],> 100 µM (inactive)
same,GI50,[12],> 100 µM (inactive)
same,GI50,[13],> 100000 nM
same,GI50,[14],> 100 µM (inactive)
same,GI50,[15],> 100 µM (inactive)
same,GI50,[16],> 100 µM (inactive)
same,GI50,[17],> 100 µM (inactive)
same,GI50,[18],> 100 µM (inactive)
same,GI50,[19],> 100 µM (inactive)
same,GI50,[20],> 100 µM (inactive)
same,GI50,[21],> 100 µM (inactive)
same,GI50,[22],> 100 µM (inactive)
same,GI50,[23],> 100 µM (inactive)
same,GI50,[24],> 100 µM (inactive)
same,GI50,[25],> 100 µM (inactive)
same,GI50,[26],> 100 µM (inactive)
same,GI50,[27],> 100 µM (inactive)
same,GI50,[28],> 100 µM (inactive)
same,GI50,[29],> 100 µM (inactive)
same,GI50,[30],> 100 µM (inactive)
same,GI50,[31],> 100 µM (inactive)
same,GI50,[32],> 100 µM (inactive)
same,GI50,[33],> 100 µM (inactive)
same,GI50,[34],> 100 µM (inactive)
same,GI50,[35],> 100 µM (inactive)
same,GI50,[36],> 100 µM (inactive)
same,GI50,[37],> 100 µM (inactive)
same,GI50,[38],> 100 µM (inactive)
same,GI50,[39],> 100 µM (inactive)
same,GI50,[40],> 100 µM (inactive)
same,GI50,[41],> 100 µM (inactive)
same,GI50,[42],> 100 µM (inactive)
same,GI50,[43],> 100 µM (inactive)
same,GI50,[44],> 100 µM (inactive)
same,GI50,[45],> 100 µM (inactive)
same,GI50,[46],> 100 µM (inactive)
same,GI50,[47],> 100 µM (inactive)
same,GI50,[48],> 100 µM (inactive)
same,GI50,[49],> 100 µM (inactive)
same,GI50,[50],> 100 µM (inactive)
same,GI50,[51],> 100 µM (inactive)
same,GI50,[52],> 100 µM (inactive)
same,GI50,[53],> 100 µM (inactive)
C=C1C(=O)OC2CC1CCC1(C)OC1CCC(C)=CCCC2(C)O (configuration not stated),GI50,[54],2.13 µM (inactive)
same,GI50,[2],8.36 µM (inactive)
same,GI50,[4],2.4 µM (inactive)
same,GI50,[5],1.03 µM (active)
same,GI50,[6],1.89 µM (inactive)
same,GI50,[7],1.81 µM (inactive)
same,GI50,[8],2.74 µM (inactive)
same,GI50,[9],3.1 µM (inactive)
same,GI50,[10],6.87 µM (inactive)
same,GI50,[11],7.01 µM (inactive)
same,GI50,[12],2.72 µM (inactive)
same,GI50,[13],1850 nM
same,GI50,[14],0.927 µM (active)
same,GI50,[15],1.47 µM (inactive)
same,GI50,[16],10.3 µM (inactive)
same,GI50,[55],2.26 µM (inactive)
same,GI50,[17],4.06 µM (inactive)
same,GI50,[18],7.18 µM (inactive)
same,GI50,[19],1.83 µM (inactive)
same,GI50,[20],2.82 µM (inactive)
same,GI50,[21],5.52 µM (inactive)
same,GI50,[22],2.24 µM (inactive)
same,GI50,[25],4.2 µM (inactive)
same,GI50,[56],3.82 µM (inactive)
same,GI50,[26],1.87 µM (inactive)
same,GI50,[27],3.76 µM (inactive)
same,GI50,[28],3.61 µM (inactive)
same,GI50,[29],1.79 µM (inactive)
same,GI50,[30],3.06 µM (inactive)
same,GI50,[31],1.06 µM (active)
same,GI50,[57],1.8 µM (inactive)
same,GI50,[58],3.33 µM (inactive)
same,GI50,[32],4.78 µM (inactive)
same,GI50,[33],10 µM (inactive)
same,GI50,[34],2.33 µM (inactive)
same,GI50,[35],1.51 µM (inactive)
same,GI50,[36],1.2 µM (inactive)
same,GI50,[37],5.36 µM (inactive)
same,GI50,[38],16.8 µM (inactive)
same,GI50,[39],4.62 µM (inactive)
same,GI50,[40],4.06 µM (inactive)
same,GI50,[41],6.12 µM (inactive)
same,GI50,[59],4 µM (inactive)
same,GI50,[42],16.7 µM (inactive)
same,GI50,[43],5.08 µM (inactive)
same,GI50,[44],14.1 µM (inactive)
same,GI50,[45],7.08 µM (inactive)
same,GI50,[46],7.74 µM (inactive)
same,GI50,[47],1.12 µM (inactive)
same,GI50,[49],11.8 µM (inactive)
same,GI50,[50],4.78 µM (inactive)
same,GI50,[51],3.4 µM (inactive)
same,GI50,[52],9.04 µM (inactive)
same,GI50,[53],3.73 µM (inactive)
